Results taken from patent US10308650B2, “Pesticidally active tetracyclic derivatives with sulfur containing substituents” (Syngenta Participations AG, priority 2014, dated 2019).

Columns and labels:
Format in all cases: in vivo
[1] = test system: Bemisia tabaci (Cotton White Fly); assay: Activity against Bemisia tabaci: feeding/contact activity; conditions: foliar, 144 h, application rate of 200 ppm, cotton leaf discs, adult white flies, 6 days after incubation
Method: Example B1: Activity Against Bemisia tabaci (Cotton White Fly): Feeding/Contact Activity
Cotton leaf discs were placed on agar in 24-well microtiter plates and sprayed with aqueous test solutions prepared from 10,000 ppm DMSO stock solutions. After drying the leaf discs were infested with adult white flies. The samples were checked for mortality 6 days after incubation.

[2] = test system: Thrips tabaci (Onion Thrips); assay: Activity against Thrips tabaci: feeding/contact activity; conditions: foliar, 144 h, application rate of 200 ppm, sunflower leaf discs, thrips population of mixed ages, 6 days after infestation
Method: Example B12: Activity Against Thrips tabaci (Onion Thrips) Feeding/Contact Activity
Sunflower leaf discs were placed on agar in 24-well microtiter plates and sprayed with aqueous test solutions prepared from 10,000 ppm DMSO stock solutions. After drying the leaf discs were infested with a thrips population of mixed ages. The samples were assessed for mortality 6 days after infestation.

[3] = test system: Myzus persicae (Green Peach Aphid); assay: Activity against Myzus persicae: systemic activity; conditions: 144 h, test rate of 24 ppm, roots of infested pea seedlings in test solution, 6 days, read-out: mortality
Method: Example B6: Activity Against Myzus persicae (Green Peach Aphid). Systemic Activity
Roots of pea seedlings infested with an aphid population of mixed ages were placed directly into aqueous test solutions prepared from 10,000 DMSO stock solutions. The samples were assessed for mortality 6 days after placing seedlings into test solutions.

[4] = test system: Spodoptera littoralis (Egyptian Cotton Leaf Worm); assay: Activity against Spodoptera littoralis (cotton leaf discs, spray); conditions: foliar, 72 h, application rate of 200 ppm, cotton leaf discs, L1 larvae, 3 days after infestation, read-out: control (mortality, anti-feeding effect, growth inhibition)
[5] = test system: Plutella xylostella (Diamond Back Moth); assay: Activity against Plutella xylostella; conditions: 120 h, application rate of 200 ppm, artificial diet, L2 larvae, 5 days after infestation, read-out: effect in at least one of the two categories (mortality or growth inhibition)
Method: Example B8: Activity Against Plutella xylostella (Diamond Back Moth)
24-well microtiter plates with artificial diet were treated with aqueous test solutions prepared from 10,000 ppm DMSO stock solutions by pipetting. After drying, the plates were infested with L2 larvae (10 to 15 per well). The samples were assessed for mortality and growth inhibition in comparison to untreated samples 5 days after infestation.

[6] = test system: Myzus persicae (Green Peach Aphid); assay: Activity against Myzus persicae: feeding/contact activity; conditions: foliar, 144 h, application rate of 200 ppm, sunflower leaf discs, aphid population of mixed ages, 6 days after infestation, read-out: mortality
Method: Example B5: Activity Against Myzus persicae (Green Peach Aphid): Feeding/Contact Activity
Sunflower leaf discs were placed onto agar in a 24-well microtiter plate and sprayed with aqueous test solutions prepared from 10,000 ppm DMSO stock solutions. After drying, the leaf discs were infested with an aphid population of mixed ages. The samples were assessed for mortality 6 days after infestation.

[7] = test system: Diabrotica balteata (Corn Root Worm); assay: Activity against Diabrotica balteata; conditions: 96 h, application rate of 200 ppm, maize sprouts, L2 larvae, 4 days after infestation, read-out: effect in at least one of the two categories (mortality or growth inhibition)
Method: Example B2: Activity Against Diabrotica balteata (Corn Root Worm)
Maize sprouts placed onto an agar layer in 24-well microtiter plates were treated with aqueous test solutions prepared from 10,000 ppm DMSO stock solutions by spraying. After drying, the plates were infested with L2 larvae (6 to 10 per well). The samples were assessed for mortality and growth inhibition in comparison to untreated samples 4 days after infestation.

[8] = test system: Aedes aegypti (Yellow Fever Mosquito); assay: Activity against Aedes aegypti; conditions: 200 ppm in ethanol, dry deposit in 12 well plates, adult females, after 48 h and/or 24 h
Method: Example B13: Activity Against Aedes aegypti (Yellow Fever Mosquito)
Test solutions, at an application rate of 200 ppm in ethanol, were applied to 12 well tissue culture plates. Once the deposits were dry, five, two to five day old adult female Aedes aegypti were added to each well, and sustained with a 10% sucrose solution in a cotton wool plug. Assessment of knockdown was made one hour after introduction, and mortality was assessed at 24 and 48 hours after introduction.

[9] = test system: Spodoptera littoralis (Egyptian Cotton Leaf Worm); assay: Activity against Spodoptera littoralis (lettuce, uptake by the roots from agar); conditions: 144 h, test rate of 12.5 ppm, lettuce grown on treated agar, Spodoptera eggs, 6 days after infestation, read-out: effect in at least one of the three categories (mortality, anti-feeding, or growth inhibition)
[10] = test system: Euschistus heros (Neotropical Brown Stink Bug); assay: Activity against Euschistus heros; conditions: 120 h, application rate of 200 ppm, soybean leaves, N2 nymphs, 5 days after infestation, read-out: effect in at least one of the two categories (mortality or growth inhibition)
Method: Example B3: Activity Against Euschistus heros (Neotropical Brown Stink Bug)
Soybean leaves on agar in 24-well microtiter plates were sprayed with aqueous test solutions prepared from 10,000 ppm DMSO stock solutions. After drying the leaves were infested with N2 nymphs. The samples were assessed for mortality and growth inhibition in comparison to untreated samples 5 days after infestation.

[11] = test system: Frankliniella occidentalis (Western Flower Thrips); assay: Activity against Frankliniella occidentalis: feeding/contact activity; conditions: foliar, 168 h, application rate of 200 ppm, sunflower leaf discs, population of mixed ages, 7 days after infestation
Method: Example B4: Activity Against Frankliniella occidentalis (Western Flower Thrips): Feeding/Contact Activity
Sunflower leaf discs were placed on agar in 24-well microtiter plates and sprayed with aqueous test solutions prepared from 10,000 DMSO stock solutions. After drying the leaf discs were infested with a Frankliniella population of mixed ages. The samples were assessed for mortality 7 days after infestation.

CCS(=O)(=O)c1cc2nc(C(F)(F)F)n(C)c2nc1-c1nc2cc(C(F)(F)F)ncc2n1C [Compound A32, 6-ethylsulfonyl-3-methyl-5-[3-methyl-6-(trifluoromethyl)imidazo[4,5-c]pyridin-2-yl]-2-(trifluoromethyl)imidazo[4,5-b]pyridine]
≥ 80%: mortality at 200 ppm [1] | mortality at 200 ppm [2] | mortality at 24 ppm [3] | mortality at 200 ppm [4] | percent effect (mortality or growth inhibition) at 200 ppm [5] | mortality at 200 ppm [6] | percent effect (mortality or growth inhibition) at 200 ppm [7] | pest or weed control at 200 ppm [8] | percent effect (mortality, anti-feeding or growth inhibition) at 12.5 ppm [9] | percent effect (mortality or growth inhibition) at 200 ppm [10]

CCS(=O)(=O)c1cc2c(cc1-c1nc3cc(C(F)(F)F)ncc3n1C)nc(C(F)(F)F)n2C [Compound A9, 2-[6-ethylsulfonyl-1-methyl-2-(trifluoromethyl)benzimidazol-5-yl]-3-methyl-6-(trifluoromethyl)imidazo[4,5-c]pyridine]
≥ 80%: mortality at 200 ppm [1] | mortality at 200 ppm [2] | mortality at 24 ppm [3] | mortality at 200 ppm [4] | percent effect (mortality or growth inhibition) at 200 ppm [5] | mortality at 200 ppm [6] | percent effect (mortality or growth inhibition) at 200 ppm [7] | mortality at 200 ppm [11] | pest or weed control at 200 ppm [8] | percent effect (mortality, anti-feeding or growth inhibition) at 12.5 ppm [9] | percent effect (mortality or growth inhibition) at 200 ppm [10]
